# Results from patent US20180264074A1, “USE OF POLYMYXIN AS AN ANTIDOTE FOR INTOXICATIONS BY AMATOXINS” (UNIVERSIDADE DO PORTO, priority 2015, published 2018).
# Tests used:
# adult male mice (CD-1) [1] = type: in vivo
# Protocol: (§1) For this purpose, adult male mice (CD-1) were used. Two experiments were performed to test polymyxin B effectiveness: polymyxin B was administered concomitantly with α-amanitin and four hours after administration of α-amanitin. Concomitant therapy consisted of 0.33 mg/kg of α-amanitin followed by 2.5 mg/kg of polymyxin B (one administration). In the second experiment, three 2.5 mg/kg administrations of polymyxin B were used in different time-points [4, 8 and 12 h, intraperitoneal (i.p.) administration] after one α-amanitin (dose 0.33 mg/kg i.p.) exposure, as to mimic the clinical scenario of late intoxication diagnosis; human intoxication is often only found hours later when symptoms become clinically relevant. […] Moreover 50% of animal exposed to polymyxin B 4, 8 and 12 h after α-amanitin survived […]. In order to validate and unveil some mechanisms involved, an acute study with the same doses and scheme was performed, with animals being sacrificed 24 h after α-amanitin administration.
# FIG. 1. Survival curves after concomitant i.p. administration of 0.33 mg/kg of α-amanitin and polymyxin B (Ama+Pol— 2.5 mg/kg) and 3 administrations of polymyxin B (Ama+Pol— 3×2.5 mg/kg) at different time-points (4, 8 and 12 h, i.p. administration) after one α-amanitin (dose 0.33 mg/kg i.p.). Results are expressed in percent survival. Control tests were performed (Control), consisting of a saline-control treatment. A polymyxin treatment (Pol) was additionally performed. A treatment with α-amanitin (Ama) as also made.
# For this purpose, adult male mice (CD-1) were used. Two experiments were performed to test polymyxin B effectiveness: polymyxin B was administered concomitantly with α-amanitin and four hours after administration of α-amanitin. Concomitant therapy consisted of 0.33 mg/kg of α-amanitin followed by 2.5 mg/kg of polymyxin B (one administration). In the second experiment, three 2.5 mg/kg administrations of polymyxin B were used in different time-points (4, 8 and 12 h, i.p. administration) after one α-amanitin exposure (0.33 mg/kg i.p dose), as to mimic the clinical scenario of late intoxication diagnosis; human intoxication is often only found hours later when symptoms become clinically relevant. […] Moreover, 50% of animals exposed to polymyxin B 4, 8 and 12 h after α-amanitin survived (FIG. 1). In order to validate and unveil some mechanisms involved, an acute study with the same doses and scheme was performed with polymyxin B 4, 8 and 12 h after α-amanitin administration. Animals were sacrificed 24 h after α-amanitin administration. […] The renal corpuscles appearance is heterogeneous, with a wide capsular space, and thickened external Bowman capsule. […]
# adult male mice (CD-1) [2] = assay: Acute study, animals sacrificed 24 h after α-amanitin: plasma aminotransferases, liver and kidney histology; type: in vivo
# Protocol: as §1
# FIG. 2. Plasma levels of Aspartate aminotransferase (AST) and alanine aminotransferase (ALT) in control, polymyxin B (3×2.5 mg/kg) (Pol), α-amanitin (Ama) and α-amanitin+polymyxin B (3×2.5 mg/kg) (Ama+Pol) groups. Results are presented as means±standard deviation (SD), and were obtained from 4-5 animals from each treatment. Statistical comparisons were made using Kruskal-Wallis ANOVA on Ranks followed by the Dunn's post hoc test (*p<0.05, Ama vs. control; #p<0.05, Ama vs. Ama+Pol).
# FIG. 3. Liver histopathology by light microscopy. (A) Light micrograph (40×) from α-amanitin treated-group. The presence of cellular oedema (1), cytoplasmic vacuolization (2), interstitial inflammatory cell infiltration (3), as well as some necrotic zones can be seen (4). (B) Light micrograph (40×) from α-amanitin+polymixin B (3×2.5 mg/kg) group. […] Increase number interstitial inflammatory cell was still observed.
# FIG. 4. Kidney histopathology by light microscopy (A) Light micrograph (10×) from α-amanitin-treated group. The presence of cytoplasmatic vacuolization (5), renal corpuscles with a wide capsular space, and thickened external Bowman capsule (6), as well as some necrotic zones can be seen (7). The presence large amounts of fibrin-related material cause enlargement and obstruction of distal tubules (8). (B) Light micrograph (10×) from α-amanitin+polymixin B (3×2.5 mg/kg) group.
# For this purpose, adult male mice (CD-1) were used. Two experiments were performed to test polymyxin B effectiveness: polymyxin B was administered concomitantly with α-amanitin and four hours after administration of α-amanitin. Concomitant therapy consisted of 0.33 mg/kg of α-amanitin followed by 2.5 mg/kg of polymyxin B (one administration). In the second experiment, three 2.5 mg/kg administrations of polymyxin B were used in different time-points (4, 8 and 12 h, i.p. administration) after one α-amanitin exposure (0.33 mg/kg i.p dose), as to mimic the clinical scenario of late intoxication diagnosis; human intoxication is often only found hours later when symptoms become clinically relevant. […] Moreover, 50% of animals exposed to polymyxin B 4, 8 and 12 h after α-amanitin survived (FIG. 1). In order to validate and unveil some mechanisms involved, an acute study with the same doses and scheme was performed with polymyxin B 4, 8 and 12 h after α-amanitin administration. Animals were sacrificed 24 h after α-amanitin administration. […] The renal corpuscles appearance is heterogeneous, with a wide capsular space, and thickened external Bowman capsule. […] Marked atrophy and degeneration of distal tubules cells was also observed, and large amounts of fibrin-related material caused enlargement and obstruction of these tubules.
# [3] = 24 h after α-amanitin 0.33 mg/kg i.p., polymyxin B 3×2.5 mg/kg at 4, 8 and 12 h
# [4] = 24 h after α-amanitin 0.33 mg/kg i.p., polymyxin B 3×2.5 mg/kg at 4, 8 and 12 h, listed as polymixin B
Compound,"day until which all animals died (adult male mice (CD-1) [1]; single dose of α-amanitin 0.33 mg/kg i.p., no antidote) [days]","signs of injury or discomfort (adult male mice (CD-1) [1]; concomitant polymyxin B 2.5 mg/kg with α-amanitin 0.33 mg/kg, up to day 30)","animals that survived (adult male mice (CD-1) [1]; polymyxin B 3×2.5 mg/kg i.p. at 4, 8 and 12 h after α-amanitin 0.33 mg/kg i.p.) [%]","animals that survived until the 30th day (adult male mice (CD-1) [1]; α-amanitin 0.33 mg/kg i.p. followed by polymyxin B 2.5 mg/kg, one concomitant administration) [%]",kidney histology (light microscopy) (adult male mice (CD-1) [2]; [3]),liver histology (light microscopy) (adult male mice (CD-1) [2]; [3]),"plasma aminotransferases (AST, ALT) (adult male mice (CD-1) [2]; [3])",kidney histology (light microscopy) (adult male mice (CD-1) [2]; [4]),liver histology (light microscopy) (adult male mice (CD-1) [2]; [4]),"hepatic and renal damage (histological and plasma data) (adult male mice (CD-1) [2]; 24 h after α-amanitin administration, same doses and scheme)"
CC[C@H](C)[C@@H]1NC(=O)CNC(=O)[C@@H]2Cc3c([nH]c4cc(O)ccc34)[S@+]([O-])C[C@H](NC(=O)CNC1=O)C(=O)N[C@@H](CC(N)=O)C(=O)N1C[C@H](O)C[C@H]1C(=O)N[C@@H]([C@@H](C)[C@@H](O)CO)C(=O)N2 [α-amanitin],≤ 5,,,,,,,,,
polymyxin B,,without major signs of injury or discomfort,50,100,"protected against the occurrence of the above referred alterations, particularly the necrosis and the obstruction of distal tubules",significant reversion against α-amanitin-induced necrotic changes as well as the induced oedema and cytoplasmic vacuolization,totally reverted,"oedema, cytoplasmatic vacuolization and necrosis, were significantly attenuated","oedema, cytoplasmatic vacuolization and necrosis, were significantly attenuated",protected against hepatic and renal damage caused by α-amanitin
